Laboratory results: patent US9957271B2, “Substituted bicyclic aza-heterocycles and analogues as sirtuin modulators” (GlaxoSmithKline, LLC, priority 2012, dated 2018)

Tests used:
[1] = molecular target: T1, SIRT1 (Homo sapiens, UniProt Q96EB6); experiment: Trp mass spectrometry assay of SIRT1 activity; assay type: biochemical; settings: for Trp EC1.5 / Trp EC1.5 (μM): concentration giving 150% activation of SIRT1; for Emax: percent maximum fold activation, read-out: Trp % Fold Act
T1 sequence (Q96EB6 1-747): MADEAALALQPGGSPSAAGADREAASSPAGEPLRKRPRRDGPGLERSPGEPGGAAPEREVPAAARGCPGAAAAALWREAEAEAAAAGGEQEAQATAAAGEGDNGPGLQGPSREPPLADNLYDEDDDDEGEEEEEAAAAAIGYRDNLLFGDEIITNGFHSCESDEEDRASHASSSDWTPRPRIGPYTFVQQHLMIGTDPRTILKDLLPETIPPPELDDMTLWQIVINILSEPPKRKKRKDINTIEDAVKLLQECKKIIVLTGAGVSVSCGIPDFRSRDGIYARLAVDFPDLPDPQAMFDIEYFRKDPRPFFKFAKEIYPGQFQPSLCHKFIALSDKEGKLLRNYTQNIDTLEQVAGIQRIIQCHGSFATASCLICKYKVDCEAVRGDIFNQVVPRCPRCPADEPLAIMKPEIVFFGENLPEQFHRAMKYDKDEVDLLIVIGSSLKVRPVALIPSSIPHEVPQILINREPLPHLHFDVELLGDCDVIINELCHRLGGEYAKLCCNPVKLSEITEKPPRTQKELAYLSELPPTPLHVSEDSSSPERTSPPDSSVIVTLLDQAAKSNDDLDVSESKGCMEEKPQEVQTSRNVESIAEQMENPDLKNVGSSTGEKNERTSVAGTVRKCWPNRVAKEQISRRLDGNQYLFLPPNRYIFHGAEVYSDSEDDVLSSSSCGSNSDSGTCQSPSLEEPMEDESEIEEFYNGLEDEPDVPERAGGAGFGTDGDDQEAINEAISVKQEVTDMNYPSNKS
Procedure, shortened: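 Activation readout: EC1.5 (concentration raising activity 50% over control) and percent maximum activation, from mass-spec quantitation of OAADPR or deacetylated Trp peptide. Reaction: 0.5 μM acetylated Trp peptide, 120 μM βNAD+, 10 nM bacterially expressed N-His SIRT1, pH 7.5 HEPES buffer with […], 25 min at 25° C.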

[2] = molecular target: T1, SIRT1; experiment: TAMRA based mass spectrometry assay of SIRT1 activity; assay type: biochemical; settings: for TAMRA EC1.5 / TAMRA EC1.5 (μM): concentration giving 150% activation of SIRT1; for Emax: percent maximum fold activation, read-out: TAMRA % Fold Act
Procedure, shortened: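 Deacetylation of a biotinylated, TAMRA-tagged p53-based peptide (0.5 μM) by 10 nM His-tagged SIRT1 with 120 μM βNAD+, 25 °C for 25 min, pH 8 Tris-acetate buffer, across a compound concentration range. Quenched by formic acid and read by mass spec as product peptide or OAADPR; activity relative to DMSO reactions, nicotinamide defining maximal inhibition.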

Row | SMILES | Trp EC1.5 ([1]; Trp peptide substrate) | Emax ([1]; Trp peptide substrate) | TAMRA EC1.5 ([2]; TAMRA peptide substrate) | Emax ([2]; TAMRA peptide substrate) | Trp EC1.5 (μM) ([1]; Trp assay) | Emax ([1]; Trp assay) | TAMRA EC1.5 (μM) ([2]; TAMRA assay) | Emax ([2]; TAMRA assay)
1 | Cc1nn2ccc(-c3ccccc3C(F)(F)F)nc2c1NC(=O)c1cccnc1 [Compound 568] | C (EC1.5>25 μM) | < 350% | C (EC1.5>25 μM) | < 350% |  |  |  | 
2 | Cc1nn2ccc(-c3ccccc3C(F)(F)F)nc2c1NC(=O)c1cnccn1 [Compound 571] | B (EC1.5 1-25 μM) | < 350% | C (EC1.5>25 μM) | < 350% |  |  |  | 
3 | Cc1nn2ccc(-c3ccccc3C(F)(F)F)nc2c1NC(=O)c1ccncn1 [Compound 572] | C (EC1.5>25 μM) | < 350% | C (EC1.5>25 μM) | < 350% |  |  |  | 
4 | Cc1nn2ccc(-c3ccccc3C(F)(F)F)nc2c1NC(=O)c1cccc(N2CCOCC2)n1 [Compound 574] | B (EC1.5 1-25 μM) | < 350% | A (EC1.5<1 μM) | ≥ 350% |  |  |  | 
5 | Cc1nn2ccc(-c3ccccc3C(F)(F)F)nc2c1C(=O)Nc1cccc(O)n1 [Compound 577] | A (EC1.5<1 μM) | < 350% | B (EC1.5 1-25 μM) | < 350% |  |  |  | 
6 | O=C(Nc1cccc(N2CCOCC2)n1)c1cnc2ccc(N3CCCC(C(F)(F)F)C3)nn12 (stereo not drawn) [Compound 578] | A (EC1.5<1 μM) | ≥ 350% | A (EC1.5<1 μM) | ≥ 350% |  |  |  | 
7 | O=C(Nc1cccc(O)n1)c1cnn2ccc(-c3ccccc3OC(F)(F)F)nc12 [Compound 580] | A (EC1.5<1 μM) | ≥ 350% | B (EC1.5 1-25 μM) | ≥ 350% |  |  |  | 
8 | O=C(Nc1cnn2ccc(-c3ccccc3OC(F)(F)F)nc12)c1ccncc1 [Compound 583] | C (EC1.5>25 μM) | < 350% | B (EC1.5 1-25 μM) | < 350% |  |  |  | 
9 | O=C(Nc1cnn2ccc(-c3ccccc3OC(F)(F)F)nc12)c1cnccn1 [Compound 584] | C (EC1.5>25 μM) | < 350% | B (EC1.5 1-25 μM) | ≥ 350% |  |  |  | 
10 | Cc1nc2c(C)cc(-c3ccccc3C(F)(F)F)nn2c1C(=O)Nc1cnccn1 [Compound 586] | A (EC1.5<1 μM) | ≥ 350% | A (EC1.5<1 μM) | ≥ 350% |  |  |  | 
11 | COc1cccc(C(=O)Nc2c(C)nc3c(C)cc(-c4ccccc4C(F)(F)F)nn23)n1 [Compound 589, N-(2,8-dimethyl-6-(2-(trifluoromethyl)phenyl)imidazo[1,2-b]pyridazin-3-yl)-6-methoxypicolinamide] | B (EC1.5 1-25 μM) | < 350% | B (EC1.5 1-25 μM) | ≥ 350% |  |  |  | 
12 | Cc1nc2c(C)cc(-c3ccccc3C(F)(F)F)nn2c1NC(=O)c1cccc(O)n1 [Compound 590] | C (EC1.5>25 μM) | < 350% | B (EC1.5 1-25 μM) | < 350% |  |  |  | 
13 | Cc1cc(C)nc(NC(=O)c2cnc3ccc(-c4cccc(OC[C@H](O)CO)c4)nn23)c1 [Compound 591] | A (EC1.5<1 μM) | < 350% | A (EC1.5<1 μM) | ≥ 350% |  |  |  | 
14 | Cc1nc2ccc(-c3cccc(OC[C@H](O)CO)c3)nn2c1C(=O)Nc1ccncn1 [Compound 594] | B (EC1.5 1-25 μM) | < 350% | B (EC1.5 1-25 μM) | < 350% |  |  |  | 
15 | Cc1nc2ccc(-c3cccc(OC[C@H](O)CO)c3)nn2c1C(=O)Nc1cccnn1 [Compound 597] |  |  |  |  | A (EC1.5<1 μM) | < 350% | B (EC1.5 1-25 μM) | < 350%
16 | Cc1cc(-c2ccccc2C(F)(F)F)nn2c(C(=O)Nc3ccnc(O[C@@H]4CCOC4)n3)cnc12 [Compound 598] |  |  |  |  | A (EC1.5<1 μM) | ≥ 350% | A (EC1.5<1 μM) | ≥ 350%
17 | CCOc1nccc(NC(=O)c2cnc3ccc(-c4ccccc4C(F)(F)F)nn23)n1 [Compound 600] |  |  |  |  | A (EC1.5<1 μM) | ≥ 350% | A (EC1.5<1 μM) | ≥ 350%

Row | SMILES | Trp EC1.5 ([1]; Trp peptide substrate) | Emax ([1]; Trp peptide substrate) | TAMRA EC1.5 ([2]; TAMRA peptide substrate) | Emax ([2]; TAMRA peptide substrate) | Trp EC1.5 (μM) ([1]; Trp assay) | Emax ([1]; Trp assay) | TAMRA EC1.5 (μM) ([2]; TAMRA assay) | Emax ([2]; TAMRA assay)
18 | Cc1cnc(NC(=O)c2cnn3ccc(-c4ccccc4OC(F)(F)F)nc23)s1 [Compound 603] |  |  |  |  | B (EC1.5 1-25 μM) | < 350% | B (EC1.5 1-25 μM) | ≥ 350%
19 | Cc1ccnc(NC(=O)c2cnn3ccc(-c4ccccc4OC(F)(F)F)nc23)c1 [Compound 604] |  |  |  |  | B (EC1.5 1-25 μM) | < 350% | A (EC1.5<1 μM) | ≥ 350%
20 | O=C(Nc1ccncc1F)c1cnn2ccc(-c3ccccc3OC(F)(F)F)nc12 [Compound 606] |  |  |  |  | A (EC1.5<1 μM) | < 350% | A (EC1.5<1 μM) | ≥ 350%
21 | O=C(Nc1ccc(F)cn1)c1cnn2ccc(-c3ccccc3OC(F)(F)F)nc12 [Compound 609] |  |  |  |  | C (EC1.5>25 μM) | < 350% | C (EC1.5>25 μM) | < 350%
22 | Cc1ccncc1NC(=O)c1cnn2ccc(-c3ccccc3OC(F)(F)F)nc12 [Compound 610] |  |  |  |  | A (EC1.5<1 μM) | ≥ 350% | B (EC1.5 1-25 μM) | < 350%
23 | Cc1cc(NC(=O)c2cnn3ccc(-c4ccccc4OC(F)(F)F)nc23)ccn1 [Compound 612] |  |  |  |  | A (EC1.5<1 μM) | ≥ 350% | A (EC1.5<1 μM) | ≥ 350%
24 | Cc1cc(-c2ccccc2C(F)(F)F)nn2c(C(=O)Nc3ccnc(OC(C)C)n3)cnc12 [Compound 615] |  |  |  |  | A (EC1.5<1 μM) | ≥ 350% | A (EC1.5<1 μM) | ≥ 350%
25 | Cc1cncc(NC(=O)c2cnn3ccc(-c4ccccc4OC(F)(F)F)nc23)c1 [Compound 616] |  |  |  |  | A (EC1.5<1 μM) | ≥ 350% | A (EC1.5<1 μM) | ≥ 350%
26 | Cc1ccc(NC(=O)c2cnn3ccc(-c4ccccc4C(F)(F)F)nc23)nc1 [Compound 618] |  |  |  |  | B (EC1.5 1-25 μM) | ≥ 350% | A (EC1.5<1 μM) | ≥ 350%
27 | Cc1ccc(NC(=O)c2cnn3ccc(-c4ccccc4OC(F)(F)F)nc23)cn1 [Compound 621] |  |  |  |  | A (EC1.5<1 μM) | ≥ 350% | A (EC1.5<1 μM) | ≥ 350%
28 | Cc1ncccc1NC(=O)c1cnn2ccc(-c3ccccc3OC(F)(F)F)nc12 [Compound 622] |  |  |  |  | A (EC1.5<1 μM) | ≥ 350% | B (EC1.5 1-25 μM) | < 350%
29 | O=C(Nc1cccnn1)c1cnn2ccc(-c3ccccc3OC(F)(F)F)nc12 [Compound 624] |  |  |  |  | A (EC1.5<1 μM) | ≥ 350% | A (EC1.5<1 μM) | ≥ 350%
30 | COCCOc1nccc(NC(=O)c2cnc3c(C)cc(-c4ccccc4C(F)(F)F)nn23)n1 [Compound 627] |  |  |  |  | A (EC1.5<1 μM) | ≥ 350% | A (EC1.5<1 μM) | ≥ 350%
31 | Cc1cccc(NC(=O)c2c(C)nn3ccc(-c4ccccc4C(F)(F)F)nc23)n1 [Compound 628, 2-methyl-N-(6-methylpyridin-2-yl)-5-(2-(trifluoromethyl)phenyl)pyrazolo[1,5-a]pyrimidine-3-carboxamide] |  |  |  |  | A (EC1.5<1 μM) | ≥ 350% | A (EC1.5<1 μM) | ≥ 350%
32 | Cc1ncccc1NC(=O)c1cnn2ccc(-c3ccccc3C(F)(F)F)nc12 [Compound 630] |  |  |  |  | A (EC1.5<1 μM) | ≥ 350% | B (EC1.5 1-25 μM) | < 350%
33 | Cc1ccc(NC(=O)c2cnn3ccc(-c4ccccc4OC(F)(F)F)nc23)nn1 [Compound 633] |  |  |  |  | B (EC1.5 1-25 μM) | < 350% | A (EC1.5<1 μM) | ≥ 350%
